In US12509457B2, “Bicyclic nitrogen containing heterocycles as inhibitors of salt-induced kinase SIK2” (priority 2019, dated 2025) one finds Ki data, which are given here for ten compounds.

A value given as a limit tells only on which side of the number the result lay.

Type in all cases: biochemical
The target in assay [1] is SIK3 (Homo sapiens, UniProt Q9Y2K2). Kind of assay: SIK3 kinase assay, IMAP fluorescence polarization.
Assay [2] concerns the target Src (Homo sapiens, UniProt P12931). Kind of assay: Src kinase assay, IMAP fluorescence polarization.
For assay [3], the target named is SIK2 (Homo sapiens, UniProt Q9H0K1). In words: SIK2 kinase assay, IMAP fluorescence polarization.
The target in assay [4] is SIK1 (Homo sapiens, UniProt P57059). In words: SIK1 kinase assay, IMAP fluorescence polarization.
In assay [5] the target is Abl (Homo sapiens, UniProt P00519). Kind of assay: Abl kinase assay, IMAP fluorescence polarization.
Sequence of Abl (P00519 whole entry): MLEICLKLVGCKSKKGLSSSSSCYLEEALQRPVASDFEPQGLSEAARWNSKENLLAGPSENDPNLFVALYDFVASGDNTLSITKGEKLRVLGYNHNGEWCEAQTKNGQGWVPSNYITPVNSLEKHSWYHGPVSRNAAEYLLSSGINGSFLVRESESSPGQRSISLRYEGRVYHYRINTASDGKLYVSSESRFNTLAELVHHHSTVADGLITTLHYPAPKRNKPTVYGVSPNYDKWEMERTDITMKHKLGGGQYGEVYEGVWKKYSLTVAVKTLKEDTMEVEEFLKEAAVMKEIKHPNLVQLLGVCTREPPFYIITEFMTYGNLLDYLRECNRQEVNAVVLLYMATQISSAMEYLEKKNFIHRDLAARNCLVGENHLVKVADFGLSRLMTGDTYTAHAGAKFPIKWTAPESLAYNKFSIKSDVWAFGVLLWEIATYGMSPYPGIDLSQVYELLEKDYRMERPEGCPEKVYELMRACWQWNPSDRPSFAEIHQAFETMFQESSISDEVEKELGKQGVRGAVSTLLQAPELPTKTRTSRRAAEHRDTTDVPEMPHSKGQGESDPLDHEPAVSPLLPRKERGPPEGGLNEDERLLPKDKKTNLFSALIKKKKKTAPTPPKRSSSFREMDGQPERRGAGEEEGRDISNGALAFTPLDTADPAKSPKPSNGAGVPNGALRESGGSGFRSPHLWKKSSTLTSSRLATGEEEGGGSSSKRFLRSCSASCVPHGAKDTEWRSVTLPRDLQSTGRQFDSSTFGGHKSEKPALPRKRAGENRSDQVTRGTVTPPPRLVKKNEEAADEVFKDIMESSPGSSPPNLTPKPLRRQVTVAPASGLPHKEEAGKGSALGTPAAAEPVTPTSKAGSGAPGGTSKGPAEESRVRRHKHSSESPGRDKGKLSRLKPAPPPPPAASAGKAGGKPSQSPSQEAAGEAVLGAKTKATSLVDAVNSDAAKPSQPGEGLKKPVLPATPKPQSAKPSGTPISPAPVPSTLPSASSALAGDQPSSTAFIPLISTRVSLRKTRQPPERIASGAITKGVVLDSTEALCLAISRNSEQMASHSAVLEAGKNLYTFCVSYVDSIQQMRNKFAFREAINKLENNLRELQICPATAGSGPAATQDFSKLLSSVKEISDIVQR

Sequence of SIK1 (P57059 whole entry): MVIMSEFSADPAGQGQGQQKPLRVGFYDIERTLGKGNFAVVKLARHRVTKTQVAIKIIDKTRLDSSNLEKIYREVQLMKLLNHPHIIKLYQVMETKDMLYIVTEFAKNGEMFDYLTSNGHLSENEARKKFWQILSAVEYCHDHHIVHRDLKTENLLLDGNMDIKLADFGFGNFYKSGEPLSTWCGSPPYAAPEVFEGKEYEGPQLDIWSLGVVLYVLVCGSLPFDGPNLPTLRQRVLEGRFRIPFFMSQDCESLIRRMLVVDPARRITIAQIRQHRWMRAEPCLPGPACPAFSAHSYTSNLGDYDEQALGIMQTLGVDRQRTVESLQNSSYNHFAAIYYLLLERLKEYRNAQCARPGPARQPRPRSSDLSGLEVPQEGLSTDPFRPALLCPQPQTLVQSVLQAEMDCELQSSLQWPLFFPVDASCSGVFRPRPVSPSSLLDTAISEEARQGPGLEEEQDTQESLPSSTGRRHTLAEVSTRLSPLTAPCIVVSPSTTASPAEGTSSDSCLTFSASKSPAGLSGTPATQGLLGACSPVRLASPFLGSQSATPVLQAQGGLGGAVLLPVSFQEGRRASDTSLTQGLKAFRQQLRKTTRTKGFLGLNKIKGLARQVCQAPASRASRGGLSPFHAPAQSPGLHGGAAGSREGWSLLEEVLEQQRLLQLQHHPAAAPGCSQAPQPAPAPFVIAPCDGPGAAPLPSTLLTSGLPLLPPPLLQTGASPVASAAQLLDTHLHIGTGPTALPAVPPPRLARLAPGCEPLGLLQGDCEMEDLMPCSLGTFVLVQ
Sequence of Src (P12931 whole entry): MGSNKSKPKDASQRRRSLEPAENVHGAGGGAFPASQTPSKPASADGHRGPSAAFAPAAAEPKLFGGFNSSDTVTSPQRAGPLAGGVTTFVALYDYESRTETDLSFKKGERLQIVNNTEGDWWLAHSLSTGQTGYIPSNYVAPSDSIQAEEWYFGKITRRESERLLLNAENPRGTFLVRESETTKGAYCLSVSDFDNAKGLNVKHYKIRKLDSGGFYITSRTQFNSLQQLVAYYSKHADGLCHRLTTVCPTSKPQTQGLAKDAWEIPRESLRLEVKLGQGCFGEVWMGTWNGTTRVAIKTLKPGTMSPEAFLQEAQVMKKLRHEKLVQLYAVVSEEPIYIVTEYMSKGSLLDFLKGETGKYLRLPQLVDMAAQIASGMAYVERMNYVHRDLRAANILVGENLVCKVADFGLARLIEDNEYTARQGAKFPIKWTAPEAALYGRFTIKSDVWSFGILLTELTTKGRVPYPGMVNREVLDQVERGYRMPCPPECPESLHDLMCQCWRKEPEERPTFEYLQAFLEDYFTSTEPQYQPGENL
Sequence of SIK3 (Q9Y2K2 whole entry): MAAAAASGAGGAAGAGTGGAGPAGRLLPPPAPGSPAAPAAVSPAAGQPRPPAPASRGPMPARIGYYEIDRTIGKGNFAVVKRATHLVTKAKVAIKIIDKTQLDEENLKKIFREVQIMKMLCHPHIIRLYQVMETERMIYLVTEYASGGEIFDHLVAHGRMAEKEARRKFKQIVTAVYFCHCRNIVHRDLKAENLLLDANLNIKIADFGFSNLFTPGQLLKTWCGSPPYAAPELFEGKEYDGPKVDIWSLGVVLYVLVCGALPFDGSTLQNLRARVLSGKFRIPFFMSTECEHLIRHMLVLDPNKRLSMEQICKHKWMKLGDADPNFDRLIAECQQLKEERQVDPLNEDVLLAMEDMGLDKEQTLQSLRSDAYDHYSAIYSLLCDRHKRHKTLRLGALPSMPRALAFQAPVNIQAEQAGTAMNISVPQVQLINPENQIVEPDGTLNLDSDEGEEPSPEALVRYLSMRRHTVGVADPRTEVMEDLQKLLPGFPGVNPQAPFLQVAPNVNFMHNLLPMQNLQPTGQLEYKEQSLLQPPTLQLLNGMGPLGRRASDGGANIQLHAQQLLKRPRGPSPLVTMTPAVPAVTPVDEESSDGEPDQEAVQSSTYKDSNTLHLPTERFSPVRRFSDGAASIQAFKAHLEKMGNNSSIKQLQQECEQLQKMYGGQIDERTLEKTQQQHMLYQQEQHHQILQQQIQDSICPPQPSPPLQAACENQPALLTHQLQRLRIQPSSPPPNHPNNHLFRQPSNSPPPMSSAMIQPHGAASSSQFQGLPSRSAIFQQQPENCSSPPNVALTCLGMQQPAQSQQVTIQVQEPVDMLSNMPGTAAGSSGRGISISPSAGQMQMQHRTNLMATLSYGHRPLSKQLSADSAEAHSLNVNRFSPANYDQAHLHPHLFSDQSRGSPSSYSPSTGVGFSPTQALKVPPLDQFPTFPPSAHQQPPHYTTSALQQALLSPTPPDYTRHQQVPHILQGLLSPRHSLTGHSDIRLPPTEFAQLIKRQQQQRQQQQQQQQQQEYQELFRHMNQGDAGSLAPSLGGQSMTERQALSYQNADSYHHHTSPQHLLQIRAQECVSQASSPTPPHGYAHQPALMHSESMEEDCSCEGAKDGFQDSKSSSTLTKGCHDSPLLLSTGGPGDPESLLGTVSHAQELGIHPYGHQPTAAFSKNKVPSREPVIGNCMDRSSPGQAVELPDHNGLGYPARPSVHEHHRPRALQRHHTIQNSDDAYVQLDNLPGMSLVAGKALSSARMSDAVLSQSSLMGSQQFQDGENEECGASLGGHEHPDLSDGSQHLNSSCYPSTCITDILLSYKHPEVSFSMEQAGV
Sequence of SIK2 (Q9H0K1 whole entry): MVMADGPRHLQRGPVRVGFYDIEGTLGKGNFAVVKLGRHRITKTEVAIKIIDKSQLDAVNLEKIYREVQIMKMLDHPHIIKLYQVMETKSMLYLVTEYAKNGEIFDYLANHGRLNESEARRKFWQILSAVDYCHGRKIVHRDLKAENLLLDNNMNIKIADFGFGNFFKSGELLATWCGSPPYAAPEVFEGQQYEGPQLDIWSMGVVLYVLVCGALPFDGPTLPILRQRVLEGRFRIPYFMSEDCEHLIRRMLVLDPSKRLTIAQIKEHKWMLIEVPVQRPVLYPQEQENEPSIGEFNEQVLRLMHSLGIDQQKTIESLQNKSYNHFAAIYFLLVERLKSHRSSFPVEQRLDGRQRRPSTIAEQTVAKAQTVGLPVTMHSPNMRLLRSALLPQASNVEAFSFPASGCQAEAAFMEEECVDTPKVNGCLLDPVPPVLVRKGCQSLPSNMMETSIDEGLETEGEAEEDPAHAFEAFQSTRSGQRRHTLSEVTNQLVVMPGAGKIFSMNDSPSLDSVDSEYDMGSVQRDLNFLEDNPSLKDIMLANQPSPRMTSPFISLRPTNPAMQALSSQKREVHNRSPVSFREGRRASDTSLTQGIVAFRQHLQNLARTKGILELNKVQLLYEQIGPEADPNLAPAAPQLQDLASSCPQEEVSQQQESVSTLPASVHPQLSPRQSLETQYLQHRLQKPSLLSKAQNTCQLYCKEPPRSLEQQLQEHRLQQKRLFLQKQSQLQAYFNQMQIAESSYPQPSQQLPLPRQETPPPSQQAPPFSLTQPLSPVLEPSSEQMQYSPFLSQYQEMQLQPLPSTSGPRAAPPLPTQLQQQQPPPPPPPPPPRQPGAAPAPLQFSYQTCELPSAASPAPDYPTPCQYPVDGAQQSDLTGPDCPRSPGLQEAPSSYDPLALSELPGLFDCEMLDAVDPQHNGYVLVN

As for `Cc1cccc(F)c1N1Cc2cnccc2N(C2CCN(C)CC2)C1=O` [Example 24, 3-(2-fluoro-6-methyl-phenyl)-1-(1-methyl-4-piperidyl)-4H-pyrido[4,3-d]pyrimidin-2-one], the inhibitory constant (Ki) in assay [1] is 24 nM; in assay [2] it was 2250 nM; in assay [3], 8.97 nM; in assay [4] it was 20.6 nM; in assay [5] it was over 10000 nM.
The like results for `Cc1cccc(Cl)c1N1Cc2cnccc2N(C2CCN(C)CC2)C1=O` [Example 32, 3-(2-chloro-6-methyl-phenyl)-1-(1-methyl-4-piperidyl)-4H-pyrido[4,3-d]pyrimidin-2-one] were, in that order, 144 nM, 514 nM, 19.6 nM, 14.7 nM and over 10000 nM.
Turning to `Cc1cccc(F)c1N1Cc2cnc(N)cc2N(C2CCN(C)CC2)C1=O` [Example 3, 7-Amino-3-(2-fluoro-6-methyl-phenyl)-1-(1-methyl-4-piperidyl)-4H-pyrido[4,3-d]pyrimidin-2-one], the Ki in assay [1] worked out at 0.975 nM; in assay [2] it was 387 nM; in assay [3], 0.239 nM; in assay [4], 0.632 nM; in assay [5], 122 nM.
The like results for `CCN1CCC(N2C(=O)N(c3c(C)cccc3F)Cc3cnc(N)nc32)CC1` [Example 20, 7-amino-1-(1-ethyl-4-piperidyl)-3-(2-fluoro-6-methyl-phenyl)-4H-pyrimido[4,5-d]pyrimidin-2-one] were, in that order, 7.18 nM, over 1000 nM, 0.803 nM, 6.61 nM and over 1000 nM.
The like results for `Cc1cccc(Cl)c1N1Cc2cnc(N)nc2N(C2CCN(C)CC2)C1=O` [Example 22, 7-amino-3-(2-chloro-6-methyl-phenyl)-1-(1-methyl-4-piperidyl)-4H-pyrimido[4,5-d]pyrimidin-2-one] were, in that order, 27.8 nM, 265 nM, 3.07 nM, 10.6 nM and over 1000 nM.
Turning to `Cc1cccc(Cl)c1N1Cc2cncnc2N(C2CCNCC2)C1=O` [Example 17, 3-(2-chloro-6-methyl-phenyl)-1-(4-piperidyl)-4H-pyrimido[4,5-d]pyrimidin-2-one], the Ki in assay [1] is 1400 nM; in assay [2] it was over 100000 nM; in assay [3], 128 nM; in assay [4] it was 273 nM; in assay [5], 3950 nM.
With `Cc1cccc(F)c1N1Cc2cncnc2N(C2CCNCC2)C1=O` [Example 16, 3-(2-fluoro-6-methyl-phenyl)-1-(4-piperidyl)-4H-pyrimido[4,5-d]pyrimidin-2-one], the inhibitory constant (Ki) in assay [1] was 489 nM; in assay [2], over 100000 nM; in assay [3] it was 92.2 nM; in assay [4], 223 nM; in assay [5] it was 4180 nM.
On to `Cc1cccc(Cl)c1N1Cc2cnc(N)cc2N(C2CCN(C)CC2)C1=O` [Example 7, 7-amino-3-(2-chloro-6-methyl-phenyl)-1-(1-methyl-4-piperidyl)-4H-pyrido[4,3-d]pyrimidin-2-one], for which the inhibitory constant (Ki) amounted to 9.46 nM in assay [1]; 263 nM in assay [2]; 2.49 nM in assay [3]; 3.21 nM in assay [4]; 271 nM in assay [5].
For `Cc1cccc(F)c1N1Cc2cnc(N)cc2N(C2CCNCC2)C1=O` [Example 1, 7-Amino-3-(2-fluoro-6-methyl-phenyl)-1-(4-piperidyl)-4H-pyrido[4,3-d]pyrimidin-2-one], the Ki in assay [1] was 1.79 nM; in assay [2], over 1000 nM; in assay [3], 0.248 nM; in assay [4], 1.68 nM; in assay [5], over 1000 nM.
As for `Cc1cccc(Cl)c1N1Cc2cnc(N)cc2N(C2CCNCC2)C1=O` [Example 6, 7-amino-3-(2-chloro-6-methyl-phenyl)-1-(4-piperidyl)-4H-pyrido[4,3-d]pyrimidin-2-one], the inhibitory constant (Ki) was 10.8 nM in assay [1]; 216 nM in assay [2]; 3.09 nM in assay [3]; 3.35 nM in assay [4]; 108 nM in assay [5].
